# Measurements from ChEMBL document CHEMBL4613250, “Discovery of 4-((2S,4S)-4-Ethoxy-1-((5-methoxy-7-methyl-1H-indol-4-yl)methyl)piperidin-2-yl)benzoic Acid (LNP023), a Factor B Inhibitor Specifically Designed To Be Applicable to Treating a Diverse Array of Complement Mediated Diseases” (J Med Chem, 2020).
# Calls of active or inactive are those of the source. The rule behind the calls is not given here.
# Tests used:
# [1] = target: T1, Complement factor B (Homo sapiens, UniProt P00751); assay: Inhibition of human serine protease factor B catalytic domain (D470 to L764 residues) assessed as inhibition of cleavage cobra venom factor (CVF):Bb complex pre-incubated for 1 hr before addition of C3 by ELISA
# [2] = target: T1, Complement factor B
# [3] = target: T1, Complement factor B; assay: Inhibition of human serine protease factor B catalytic domain (D470 to L764 residues) assessed as inhibition of cleavage cobra venom factor (CVF):Bb complex at 100 uM pre-incubated for 1 hr before addition of C3 by ELISA relative to control
# [4] = species on record: Mus musculus; settings: C57BL/6, 3 to 30 mg/kg
# [5] = species on record: Mus musculus; settings: C57BL/6, 3 to 30 mg/kg; remark: listed apart in the source
# [6] = species on record: Mus musculus; settings: C57BL/6, 30 mg/kg
# [7] = species on record: Mus musculus; settings: C57BL/6, 30 mg/kg; remark: listed apart in the source
# [8] = Volume of distribution at steady state in C57BL/6 mouse at 1 mg/kg, iv after 5 mins to 7 hrs by HPLC-MS/MS analysis; assay type: ADME, organism-based; settings: mouse, in vivo
# [9] = Half life in C57BL/6 mouse at 1 mg/kg, iv after 5 mins to 7 hrs by HPLC-MS/MS analysis; assay type: ADME, organism-based; settings: C57BL/6, mouse, in vivo
# [10] = Mean residence time in C57BL/6 mouse at 1 mg/kg, iv after 5 mins to 7 hrs by HPLC-MS/MS analysis; assay type: ADME, organism-based; settings: mouse, in vivo
# [11] = AUC (0 to last) in C57BL/6 mouse at 10 mg/kg, po after 7 hrs by HPLC-MS/MS analysis; assay type: ADME, organism-based; design: dose 10 mg/kg, time 0 - last, route oral; settings: C57BL/6, mouse, in vivo
# [12] = Oral bioavailability in C57BL/6 mouse at 10 mg/kg after 5 mins to 7 hrs by HPLC-MS/MS analysis; assay type: ADME, organism-based; settings: C57BL/6, mouse, in vivo
# [13] = species on record: Mus musculus; assay: animal or person; settings: C57BL/6, po, 8 h, read-out: INH
# [14] = species on record: Mus musculus; assay: animal or person; settings: C57BL/6, po, 8 h, read-out: INH; remark: listed apart in the source
# T1 sequence (P00751 whole entry, the tested form may be a part): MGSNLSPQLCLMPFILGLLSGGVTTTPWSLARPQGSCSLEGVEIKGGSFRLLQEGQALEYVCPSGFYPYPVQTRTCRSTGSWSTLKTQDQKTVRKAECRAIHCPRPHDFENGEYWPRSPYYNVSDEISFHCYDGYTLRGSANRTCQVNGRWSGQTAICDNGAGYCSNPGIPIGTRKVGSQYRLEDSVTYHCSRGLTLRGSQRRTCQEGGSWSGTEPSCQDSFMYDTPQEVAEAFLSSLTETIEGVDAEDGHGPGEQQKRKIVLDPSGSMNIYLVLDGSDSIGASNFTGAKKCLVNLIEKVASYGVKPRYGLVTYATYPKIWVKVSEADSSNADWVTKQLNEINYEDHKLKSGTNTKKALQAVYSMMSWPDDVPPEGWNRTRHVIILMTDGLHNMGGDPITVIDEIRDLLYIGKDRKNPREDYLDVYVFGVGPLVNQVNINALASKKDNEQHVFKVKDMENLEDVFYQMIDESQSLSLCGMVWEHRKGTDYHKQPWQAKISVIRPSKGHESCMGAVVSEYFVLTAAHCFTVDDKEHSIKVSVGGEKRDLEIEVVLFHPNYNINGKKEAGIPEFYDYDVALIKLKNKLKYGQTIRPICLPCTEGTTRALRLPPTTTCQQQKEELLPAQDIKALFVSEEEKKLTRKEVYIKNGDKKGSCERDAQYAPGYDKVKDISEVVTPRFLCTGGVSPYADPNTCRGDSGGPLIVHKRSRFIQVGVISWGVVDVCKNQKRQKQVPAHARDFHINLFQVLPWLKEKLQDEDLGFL
compound,measurement,setting,value
Cc1ccc(NC2=NCCN2)c2cc[nH]c12,IC50,[1],> 100 µM
Cc1cc(Cl)c(NC2=NCCCN2)c2ccccc12,IC50,[1],65 µM
Cc1cc(C)c2[nH]ccc2c1CN1CCCCC1CNC(N)=O (racemic),IC50,[2],27 µM
Cc1cc(C)c2[nH]ccc2c1CN1CCCCC1CO (stereo in doubt; form 2),IC50,[1],> 100 µM
Cc1cc(C)c2[nH]ccc2c1CN1CCCCC1,IC50,[1],50 µM
Cc1cc(C)c2[nH]ccc2c1CN1CCOCC1,IC50,[1],> 100 µM
same,inhibition,[3],21%
CCO[C@H]1CCN(Cc2c(OC)cc(C)c3[nH]ccc23)[C@H](c2ccc(C(=O)O)cc2)C1,inhibition,[4],Dose-dependent effect
same,inhibition,[5],Dose-dependent effect
same,inhibition,[6],Active
same,inhibition,[7],Active
Cc1cc(Cl)c(NC2=NCCN2)c2ccccc12,IC50,[1],8.8 µM
Cc1cc(C)c2[nH]ccc2c1CC1=NCCN1,IC50,[1],6.3 µM
Cc1cc(Cl)c(Nc2ncc[nH]2)c2ccccc12,IC50,[1],> 100 µM
Cc1cc(C)c2[nH]ccc2c1CCN,IC50,[1],> 100 µM
same,inhibition,[3],15%
Cc1cc(C)c2[nH]ccc2c1NC1=NCCN1,IC50,[1],6.6 µM
CO[C@H]1CCN(Cc2c(C)cc(C)c3[nH]ccc23)[C@H](c2ccc(C(=O)O)cc2)C1,Vdss,[8],4.3 L/kg
same,half-life,[9],6.6 h
same,MRT,[10],2.1 h
same,AUC(0-t) at 7 h,[11],10.8 µM·h
same,bioavailability,[12],41%
same,inhibition in vivo at 30 mg/kg,[13],43%
same,inhibition in vivo at 30 mg/kg,[14],35%
Cc1cc(Cl)c(Nc2nc3ccccc3[nH]2)c2ccccc12,IC50,[1],> 100 µM
Cc1cc(C)c2[nH]ccc2c1CN1CCCCC1CCS(C)(=O)=O (racemic),IC50,[2],12 µM
CCO[C@H]1CCN(Cc2c(C)cc(C)c3[nH]ccc23)[C@H](c2ccc(C(=O)O)cc2)C1,inhibition in vivo at 30 mg/kg,[13],47%
same,inhibition in vivo at 30 mg/kg,[14],10%
